Laboratory results published in patent publication US20160101076A1, “Use of Sumoylation Inhibitors for Treating Cancer” (priority 2013, published 2016).

Legend:
[1] = test system: pancreatic carcinoma Panc-1 cell line; assay: CD44 Western blot in Panc-1 pancreatic carcinoma; type: cell-based; conditions: Panc-1, 96 h treatment; FIG. 18
Description: FIG. 18: Western blot, CD44 downregulation, Panc-1 pancreatic carcinoma was treated with ginkgolic and anacardic acids, 96 h.
Similar downregulation of stem cell marker CD44 was determined in pancreatic carcinoma Panc-1 cell line (FIG. 18) and undifferentiated thyroid cell line 8505c (FIG. 19) after 96 h treatment with SUMO inhibitors anacardic and ginkgolic acids. • Woodfield, G. W., Horan, A. D., Chen, Y. & Weigel, R. J. TFAP2C controls hormone response in breast cancer cells through multiple pathways of estrogen signaling. Cancer Res 67, 8439-8443 (2007). • Woodfield, G. W., Chen, Y., Bair, T. B., Domann, F. E. & Weigel, R. J. Identification of primary gene targets of TFAP2C in hormone responsive breast carcinoma cells. Genes Chromosomes Cancer 49, 948-962, doi:10.1002/gcc.20807 (2010). • Tan, S. K. et al. AP-2gamma regulates oestrogen receptor-mediated longrange chromatin interaction and gene transcription. Embo J 30, 2569-2581, doi:10.1038/emboj.2011.151 (2011). • Sorlie, T. et al. Gene expression patterns of breast carcinomas distinguish tumor subclasses with clinical implications. Proc Natl Acad Sci USA 98, 10869-10874. (2001). • Kao, J. et al. Molecular profiling of breast cancer cell lines defines relevant tumor models and provides a resource for cancer gene discovery. […]

[2] = test system: Colorectal cancer stem cells (CSC); assay: Stem cell markers in primary colorectal cancer stem cells (qPCR, Western blot); type: cell-based; conditions: 10 μM, 48 hours
Description: […]: qPCR, CD44 downregulation after treatment of colorectal CSC with anacardic acid, 48 h. […]: qPCR, ALCAM (activated leucocyte cell adhesion molecule) after treatment of colorectal CSC with anacardic acid, 48 h. FIG. 17C: qPCR, EPCAM (epithelial cell adhesion molecule) after treatment of colorectal CSC with anacardic acid, 48 h. FIG. 17D: Western blot, CD44 downregulation after treatment of colorectal CSC with anacardic acid, 48 h.
Informed consent primary colorectal tumor material was obtained during operation and was transferred to lab. Colorectal cancer stem cells (CSC) were isolated accordingly Cammareri et al, 2008 and treated with 10 μM anacardic acid within 48 hours.

| Compound | stem cell marker CD44 (Western blot) [1] | CD44 by qPCR ([2]; FIG. 17A) | ALCAM by qPCR ([2]; FIG. 17B) | EPCAM by qPCR ([2]; FIG. 17C) | CD44 by Western blot ([2]; FIG. 17D) |
| --- | --- | --- | --- | --- | --- |
| CCCCCC/C=C\CCCCCCCc1cccc(O)c1C(=O)O [GA, (Z)-6-(Pentadec-8-enyl)-2-hydroxybenzoic acid] | downregulation |  |  |  |  |
| CCCCCCCCCCCCCCCc1cccc(O)c1C(=O)O [AA, Anacardic acid (C15:0)] | downregulation | down regulated | down regulated | down regulated | reduction |
